Reference: patent publication US12319672B2, “Alpha-D-galactopyranoside derivatives” (Idorsia Pharmaceuticals Ltd, priority 2019, dated 2025)

How the values were obtained:
human Gal-3 (hGal-3) = human Gal-3 (hGal-3) (Homo sapiens (Human), UniProt P17931); test: Competitive binding assay: binding of biotinylated hGal-3 to microplate-adsorbed asialofetuin (ASF); details: Activity on hGal-3; mean values of several measurements
Procedure, shortened: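 Spectrophotometric readout (streptavidin-peroxidase, ABTS) of biotinylated galectin retained on ASF-coated wells. Biotinylated hGal-1 or hGal-3, 300-1000 ng/mL, co-incubated with test compound 3 h at 4° C, then washed. Mean IC50 from repeat runs.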

human Gal-1 (hGal-1) = test: Competitive binding assay: binding of biotinylated hGal-1 to microplate-adsorbed asialofetuin (ASF); details: Activities on hGal-1; mean values of several measurements
Sequence of human Gal-1 (hGal-1) (P09382 2-135 limits assumed): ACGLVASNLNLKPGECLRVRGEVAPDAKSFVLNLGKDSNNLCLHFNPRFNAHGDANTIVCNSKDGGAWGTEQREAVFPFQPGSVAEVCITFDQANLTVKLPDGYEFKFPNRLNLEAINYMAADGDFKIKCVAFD
Procedure, shortened: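 For hGal-1, a variant with all six cysteines replaced by serines is preferred. Either galectin, biotinylated at 300-1000 ng/mL, competes with compound for microplate-bound ASF over 3 h at 4° C; peroxidase/ABTS detection gives IC50, averaged.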

Sequence of human Gal-3 (hGal-3) (P17931 whole entry): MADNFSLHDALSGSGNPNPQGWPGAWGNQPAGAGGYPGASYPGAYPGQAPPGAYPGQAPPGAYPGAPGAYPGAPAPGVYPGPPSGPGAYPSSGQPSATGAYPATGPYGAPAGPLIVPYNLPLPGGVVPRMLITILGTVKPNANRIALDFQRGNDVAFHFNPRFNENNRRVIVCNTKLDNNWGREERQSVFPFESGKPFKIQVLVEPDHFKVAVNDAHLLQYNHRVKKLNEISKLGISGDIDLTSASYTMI

| SMILES | IC50 (human Gal-3 (hGal-3)) [nM] | IC50 (human Gal-1 (hGal-1)) [nM] |
| --- | --- | --- |
| CC(C)(C)C(=O)N1CCC(c2cc(C[C@H]3O[C@H](CO)[C@H](O)[C@H](n4cc(-c5cc(F)c(F)c(F)c5)nn4)[C@H]3O)no2)CC1 [Example 3.30, 1-(4-(3-(((2R,3R,4R,5R,6R)-3,5-dihydroxy-6-(hydroxymethyl)-4-(4-(3,4,5-trifluorophenyl)-1H-1,2,3-triazol-1-yl)tetrahydro-2H-pyran-2-yl)methyl)isoxazol-5-yl)piperidin-1-yl)-2,2-dimethylpropan-1-one] | 160 | 3620 |
| CCOC(=O)N1CCC(c2cc(C[C@H]3O[C@H](CO)[C@H](O)[C@H](n4cc(-c5cc(F)c(F)c(F)c5)nn4)[C@H]3OC)no2)CC1 [Example 3.31, ethyl 4-(3-(((2R,3R,4S,5R,6R)-5-hydroxy-6-(hydroxymethyl)-3-methoxy-4-(4-(3,4,5-trifluorophenyl)-1H-1,2,3-triazol-1-yl)tetrahydro-2H-pyran-2-yl)methyl)isoxazol-5-yl)piperidine-1-carboxylate] | 73 | 850 |
| COC(=O)N1CCC(c2cc(C[C@H]3O[C@H](CO)[C@H](O)[C@H](n4cc(-c5cc(F)c(F)c(F)c5)nn4)[C@H]3OC)no2)CC1 [Example 3.32, methyl 4-(3-(((2R,3R,4S,5R,6R)-5-hydroxy-6-(hydroxymethyl)-3-methoxy-4-(4-(3,4,5-trifluorophenyl)-1H-1,2,3-triazol-1-yl)tetrahydro-2H-pyran-2-yl)methyl)isoxazol-5-yl)piperidine-1-carboxylate] | 46 | 610 |
| CO[C@@H]1[C@@H](n2cc(-c3cc(F)c(F)c(F)c3)nn2)[C@@H](O)[C@@H](CO)O[C@@H]1Cc1cc(C2CCN(C(=O)C(C)C)CC2)on1 [Example 3.33, 1-(4-(3-(((2R,3R,4S,5R,6R)-5-hydroxy-6-(hydroxymethyl)-3-methoxy-4-(4-(3,4,5-trifluorophenyl)-1H-1,2,3-triazol-1-yl)tetrahydro-2H-pyran-2-yl)methyl)isoxazol-5-yl)piperidin-1-yl)-2-methylpropan-1-one] | 65 | 1080 |
| CO[C@@H]1[C@@H](n2cc(-c3cc(F)c(F)c(F)c3)nn2)[C@@H](O)[C@@H](CO)O[C@@H]1Cc1cc(C2CCN(C(=O)C(C)(C)C)CC2)on1 [Example 3.34, 1-(4-(3-(((2R,3R,4S,5R,6R)-5-hydroxy-6-(hydroxymethyl)-3-methoxy-4-(4-(3,4,5-trifluorophenyl)-1H-1,2,3-triazol-1-yl)tetrahydro-2H-pyran-2-yl)methyl)isoxazol-5-yl)piperidin-1-yl)-2,2-dimethylpropan-1-one] | 120 | 1510 |
| CCCC(=O)N1CCC(c2cc(C[C@H]3O[C@H](CO)[C@H](O)[C@H](n4cc(-c5cc(F)c(F)c(F)c5)nn4)[C@H]3OC)no2)CC1 [Example 3.35, 1-(4-(3-(((2R,3R,4S,5R,6R)-5-hydroxy-6-(hydroxymethyl)-3-methoxy-4-(4-(3,4,5-trifluorophenyl)-1H-1,2,3-triazol-1-yl)tetrahydro-2H-pyran-2-yl)methyl)isoxazol-5-yl)piperidin-1-yl)butan-1-one] | 48 | 930 |
| CCNC(=O)N1CCC(c2cc(C[C@H]3O[C@H](CO)[C@H](O)[C@H](n4cc(-c5cc(F)c(F)c(F)c5)nn4)[C@H]3OC)no2)CC1 [Example 3.37, N-ethyl-4-(3-(((2R,3R,4S,5R,6R)-5-hydroxy-6-(hydroxymethyl)-3-methoxy-4-(4-(3,4,5-trifluorophenyl)-1H-1,2,3-triazol-1-yl)tetrahydro-2H-pyran-2-yl)methyl)isoxazol-5-yl)piperidine-1-carboxamide] | 97 | 1090 |
| CO[C@@H]1[C@@H](n2cc(-c3cc(F)c(F)c(F)c3)nn2)[C@@H](O)[C@@H](CO)O[C@@H]1Cc1cc(C2CCN(C(=O)NC(C)C)CC2)on1 [Example 3.38, 4-(3-(((2R,3R,4S,5R,6R)-5-hydroxy-6-(hydroxymethyl)-3-methoxy-4-(4-(3,4,5-trifluorophenyl)-1H-1,2,3-triazol-1-yl)tetrahydro-2H-pyran-2-yl)methyl)isoxazol-5-yl)-N-isopropylpiperidine-1-carboxamide] | 43 | 450 |

Continued, values first:

| IC50 (human Gal-3 (hGal-3)) [nM] | IC50 (human Gal-1 (hGal-1)) [nM] | SMILES |
| --- | --- | --- |
| 260 | 5090 | CO[C@@H]1[C@@H](n2cc(-c3cc(F)c(F)c(F)c3)nn2)[C@@H](O)[C@@H](CO)O[C@@H]1Cc1cc(C2CCN(C)CC2)on1 [Example 3.39, (2R,3R,4S,5R,6R)-2-(hydroxymethyl)-5-methoxy-6-((5-(1-methylpiperidin-4-yl)isoxazol-3-yl)methyl)-4-(4-(3,4,5-trifluorophenyl)-1H-1,2,3-triazol-1-yl)tetrahydro-2H-pyran-3-ol] |
| 230 | 2960 | CO[C@@H]1[C@@H](n2cc(-c3cc(F)c(F)c(F)c3)nn2)[C@@H](O)[C@@H](CO)O[C@@H]1Cc1cc(C2CCN(CC(C)C)CC2)on1 [Example 3.41, (2R,3R,4S,5R,6R)-2-(hydroxymethyl)-6-((5-(1-isobutylpiperidin-4-yl)isoxazol-3-yl)methyl)-5-methoxy-4-(4-(3,4,5-trifluorophenyl)-1H-1,2,3-triazol-1-yl)tetrahydro-2H-pyran-3-ol] |
| 140 | 5900 | CO[C@@H]1[C@@H](n2cc(-c3cc(F)c(F)c(F)c3)nn2)[C@@H](O)[C@@H](CO)O[C@@H]1Cc1cc(C2CCN(CCC(C)(C)C)CC2)on1 [Example 3.42, (2R,3R,4S,5R,6R)-6-((5-(1-(3,3-dimethylbutyl)piperidin-4-yl)isoxazol-3-yl)methyl)-2-(hydroxymethyl)-5-methoxy-4-(4-(3,4,5-trifluorophenyl)-1H-1,2,3-triazol-1-yl)tetrahydro-2H-pyran-3-ol] |
| 130 | 2830 | CO[C@@H]1[C@@H](n2cc(-c3cc(F)c(F)c(F)c3)nn2)[C@@H](O)[C@@H](CO)O[C@@H]1Cc1cc(C2CCN(CC3CC3)CC2)on1 [Example 3.43, (2R,3R,4S,5R,6R)-6-((5-(1-(cyclopropylmethyl)piperidin-4-yl)isoxazol-3-yl)methyl)-2-(hydroxymethyl)-5-methoxy-4-(4-(3,4,5-trifluorophenyl)-1H-1,2,3-triazol-1-yl)tetrahydro-2H-pyran-3-ol] |
| 560 | 5320 | CO[C@@H]1[C@@H](n2cc(-c3cc(F)c(F)c(F)c3)nn2)[C@@H](O)[C@@H](CO)O[C@@H]1Cc1cc(C2CCN(CC3COC3)CC2)on1 [Example 3.44, (2R,3R,4S,5R,6R)-2-(hydroxymethyl)-5-methoxy-6-((5-(1-(oxetan-3-ylmethyl)piperidin-4-yl)isoxazol-3-yl)methyl)-4-(4-(3,4,5-trifluorophenyl)-1H-1,2,3-triazol-1-yl)tetrahydro-2H-pyran-3-ol] |
| 37 | 490 | CO[C@@H]1[C@@H](n2cc(-c3cc(F)c(F)c(F)c3)nn2)[C@@H](O)[C@@H](CO)O[C@@H]1Cc1cc(C2CCN(S(C)(=O)=O)CC2)on1 [Example 3.45, (2R,3R,4S,5R,6R)-2-(hydroxymethyl)-5-methoxy-6-((5-(1-(methylsulfonyl)piperidin-4-yl)isoxazol-3-yl)methyl)-4-(4-(3,4,5-trifluorophenyl)-1H-1,2,3-triazol-1-yl)tetrahydro-2H-pyran-3-ol] |
| 44 | 580 | CCCS(=O)(=O)N1CCC(c2cc(C[C@H]3O[C@H](CO)[C@H](O)[C@H](n4cc(-c5cc(F)c(F)c(F)c5)nn4)[C@H]3OC)no2)CC1 [Example 3.46, (2R,3R,4S,5R,6R)-2-(hydroxymethyl)-5-methoxy-6-((5-(1-(propylsulfonyl)piperidin-4-yl)isoxazol-3-yl)methyl)-4-(4-(3,4,5-trifluorophenyl)-1H-1,2,3-triazol-1-yl)tetrahydro-2H-pyran-3-ol] |
| 50 | 760 | CO[C@@H]1[C@@H](n2cc(-c3cc(F)c(F)c(F)c3)nn2)[C@@H](O)[C@@H](CO)O[C@@H]1Cc1cc(C2CCN(S(=O)(=O)C(C)C)CC2)on1 [Example 3.47, (2R,3R,4S,5R,6R)-2-(hydroxymethyl)-6-((5-(1-(isopropylsulfonyl)piperidin-4-yl)isoxazol-3-yl)methyl)-5-methoxy-4-(4-(3,4,5-trifluorophenyl)-1H-1,2,3-triazol-1-yl)tetrahydro-2H-pyran-3-ol] |
| 41 | 470 | CO[C@@H]1[C@@H](n2cc(-c3cc(F)c(F)c(F)c3)nn2)[C@@H](O)[C@@H](CO)O[C@@H]1Cc1cc(C2CCN(C(=O)CC(C)C)CC2)on1 [Example 3.48, 1-(4-(3-(((2R,3R,4S,5R,6R)-5-hydroxy-6-(hydroxymethyl)-3-methoxy-4-(4-(3,4,5-trifluorophenyl)-1H-1,2,3-triazol-1-yl)tetrahydro-2H-pyran-2-yl)methyl)isoxazol-5-yl)piperidin-1-yl)-3-methylbutan-1-one] |
| 57 | 530 | CO[C@@H]1[C@@H](n2cc(-c3cc(F)c(F)c(F)c3)nn2)[C@@H](O)[C@@H](CO)O[C@@H]1Cc1cc(C2CCN(C(=O)C3CCCC3)CC2)on1 [Example 3.49, cyclopentyl(4-(3-(((2R,3R,4S,5R,6R)-5-hydroxy-6-(hydroxymethyl)-3-methoxy-4-(4-(3,4,5-trifluorophenyl)-1H-1,2,3-triazol-1-yl)tetrahydro-2H-pyran-2-yl)methyl)isoxazol-5-yl)piperidin-1-yl)methanone] |
| 45 | 590 | CO[C@@H]1[C@@H](n2cc(-c3cc(F)c(F)c(F)c3)nn2)[C@@H](O)[C@@H](CO)O[C@@H]1Cc1cc(C2CCN(C(=O)C3CCC3)CC2)on1 [Example 3.50, cyclobutyl(4-(3-(((2R,3R,4S,5R,6R)-5-hydroxy-6-(hydroxymethyl)-3-methoxy-4-(4-(3,4,5-trifluorophenyl)-1H-1,2,3-triazol-1-yl)tetrahydro-2H-pyran-2-yl)methyl)isoxazol-5-yl)piperidin-1-yl)methanone] |
